Patent publication US20250368628A1, “METHODS AND COMPOUNDS FOR MODULATING INHERITED GENETIC DISEASES” (Design Therapeutics, Inc., priority 2022, published 2025)
Read-outs that look alike come from different tables or passages of the source.

How the values were obtained:
[1] = tested on: Myotonic Dystrophy 1 affected patient fibroblasts (Coriel GM04602; 1600 CTG repeats); assay: DM1 foci reduction assay (EC50 assay; CAG10-Cy3 FISH, foci per nucleus); format: cell-based
Procedure, shortened: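 Foci per nucleus counted by 20× imaging of 4 areas per well, after overnight FISH with 5 nM CAG10-Cy3 and DAPI staining of fixed, permeabilized cells. DM1 fibroblasts (GM04602, 1600 CTG) were dosed 48 h at 37 °C, 8 points, 3-fold dilutions, 3 μM top concentration.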

F35T cells = assay: Foci reduction in FECD (CAG10-Cy3 FISH, foci per nucleus); format: cell-based
Procedure, shortened: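 Foci per nucleus were counted by imaging after overnight CAG10-Cy3 FISH at 37 °C (30% formamide, 2×SSC) with DAPI counterstain, on PFA-fixed, ethanol-permeabilized F35T cells. The cells, seeded at 5000 per well in supplemented Opti-MEM, had received 8-point compound dilutions for 48 h at 37 °C.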

[2] = Homo sapiens, Fibroblast; DM1 patient fibroblasts, foci per nucleus, 48 h treatment; read-out: DM1 EC50, 48 h
[3] = F35T cells, foci per nucleus, 48 h treatment; read-out: FECD EC50, 48 h
[4] = Homo sapiens, Fibroblast; DM1 patient fibroblasts, 48 h treatment, foci per nucleus; read-out: DM1 EC50, 48 h
[5] = F35T cells, 48 h treatment, foci per nucleus; read-out: FECD EC50, 48 h

Compound | EC50 [1, 2] [nM] | EC50 (F35T cells; [3]) [nM] | EC50 [1, 4] [nM] | EC50 (F35T cells; [5]) [nM]
CCCn1cc(NC(=O)c2nc(NC(=O)CCNC(=O)c3cc(NC(=O)c4nccn4C)cn3C)cn2C)cc1C(=O)NCCCC(=O)Nc1cn(C)c(C(=O)NCCC(=O)Nc2cc(C(=O)Nc3cn(C)c(C(=O)NCCC(=O)N4CCN(C)CC4)n3)n(C)c2)n1 [Compound B-429] | < 100 | < 100 |  | 
Cn1cc(NC(=O)c2nc(NC(=O)CCNC(=O)c3cc(NC(=O)c4nccn4C)cn3C)cn2C)cc1C(=O)NCCCC(=O)Nc1cn(C)c(C(=O)NCCC(=O)Nc2cc(C(=O)Nc3cn(C)c(C(=O)NCCC(=O)N4CCN(CCOCCOCCOCCOCCN)CC4)n3)n(C)c2)n1 [Compound B-28] |  |  | 500 to 1000 | 500 to 1000
Cn1cc(NC(=O)c2nc(NC(=O)CCNC(=O)c3cc(NC(=O)c4nccn4C)cn3C)cn2C)cc1C(=O)NCCCC(=O)Nc1cn(C)c(C(=O)NCCC(=O)Nc2cc(C(=O)Nc3cn(C)c(C(=O)NCCC(=O)N4CCC(C#CC#CC5CCCCC5)CC4)n3)n(C)c2)n1 [Compound B-385] |  |  | > 1000 | 100 to 500
CC(=O)N1CCC(C#CC#CC2CCN(C(=O)CCNC(=O)c3nc(NC(=O)c4cc(NC(=O)CCNC(=O)c5nc(NC(=O)CCCNC(=O)c6cc(NC(=O)c7nc(NC(=O)CCNC(=O)c8cc(NC(=O)c9nccn9C)cn8C)cn7C)cn6CCOCCN)cn5C)cn4C)cn3C)CC2)CC1 [Compound B-296] |  |  | < 100 | < 100
Cn1cc(NC(=O)c2nc(NC(=O)CCNC(=O)c3cc(NC(=O)c4nccn4C)cn3C)cn2C)cc1C(=O)NCCCC(=O)Nc1cn(C)c(C(=O)NCCC(=O)Nc2cc(C(=O)Nc3cn(C)c(C(=O)NCCCNCC#Cc4ccc(C(=O)O)cc4)n3)n(C)c2)n1 [Compound B-249] |  |  | 100 to 500 | < 100
CC(Nc1cc(C(=O)NCCC(=O)Nc2cn(C)c(C(=O)Nc3cc(C(=O)NCCCC(=O)Nc4cn(C)c(C(=O)Nc5cc(C(=O)NCCC(=O)Nc6cn(C)c(C(=O)NCCC(=O)NCCOCCOCCOCCOCCOCCNC(=O)[C@H](CO)NC(=O)OC(C)(C)C)n6)n(C)c5)n4)n(C)c3)n2)n(C)c1)c1nccn1C (some centres unmarked) [Compound B-110] |  |  | 500 to 1000 | 100 to 500
CCCCn1cc(NC(=O)c2nc(NC(=O)CCNC(=O)c3cc(NC(=O)c4nccn4C)cn3C)cn2C)cc1C(=O)NC[C@H](N)CC(=O)Nc1cn(C)c(C(=O)NCCC(=O)Nc2cc(C(=O)Nc3cn(C)c(C(=O)NCCCCN(C)C)n3)n(C)c2)n1 [Compound B-423] | 100 to 500 | > 1000 |  | 
CCCNC(=O)CCNC(=O)c1nc(NC(=O)c2cc(NC(=O)CCNC(=O)c3nc(NC(=O)CCCNC(=O)c4cc(NC(=O)c5nc(NC(=O)CCNC(=O)c6cc(NC(=O)c7nccn7C)cn6C)cn5C)cn4CCN)cn3C)cn2C)cn1C [Compound B-265] |  |  | 100 to 500 | 100 to 500
Cn1cc(NC(=O)c2nc(NC(=O)CCNC(=O)c3cc(NC(=O)c4nccn4C)cn3C)cn2C)cc1C(=O)NCCCC(=O)Nc1cn(C)c(C(=O)NCCC(=O)Nc2cc(C(=O)Nc3cn(C)c(C(=O)NCCC(=O)NCCOCCOc4ccc(N)cc4)n3)n(C)c2)n1 [Compound B-16] |  |  | 100 to 500 | 100 to 500
COCCOCCOCCOCCN(CCOCCOCCOCCOC)C(=O)CCCCn1cc(NC(=O)c2nc(NC(=O)CCNC(=O)c3cc(NC(=O)c4nccn4C)cn3C)cn2C)cc1C(=O)NCCCC(=O)Nc1cn(C)c(C(=O)NCCC(=O)Nc2cc(C(=O)Nc3cn(C)c(C(=O)NCCC(=O)N4CCC(C#CC#CC5CCNCC5)CC4)n3)n(C)c2)n1 [Compound B-260] |  |  | 100 to 500 | 100 to 500
COCCOCCOCCOCCOCCOCCC(=O)NCCCCCCn1cc(NC(=O)c2nc(NC(=O)CCNC(=O)c3cc(NC(=O)c4nccn4C)cn3C)cn2C)cc1C(=O)NCCCC(=O)Nc1cn(C)c(C(=O)NCCC(=O)Nc2cc(C(=O)Nc3cn(C)c(C(=O)NCCC(=O)N4CCC(C#CC#CC5CCNCC5)CC4)n3)n(C)c2)n1 [Compound B-240] |  |  | 100 to 500 | < 100
CN(C)CCCNC(=O)CCNC(=O)c1nc(NC(=O)c2cc(NC(=O)CCNC(=O)c3nc(NC(=O)CCCNC(=O)c4cc(NC(=O)c5nc(NC(=O)CCNC(=O)c6cc(NC(=O)c7nccn7C)cn6C)cn5C)cn4C)cn3C)cn2C)cn1C [Compound B-33] |  |  | 100 to 500 | 100 to 500
C=C(NCCC(=O)Nc1cc(C(=O)Nc2cn(C)c(C(=O)NCCC(=O)NCCC)n2)n(C)c1)c1nc(NC(=O)CCCNC(=O)c2cc(NC(=O)c3nc(NC(=O)CCNC(=O)c4cc(NC(=O)c5nccn5C)cn4C)cn3C)cn2CCCNC(=O)C(C)(C)C)cn1C [Compound B-400] |  |  | < 100 | < 100
CCCNC(=O)CCNC(=O)c1cc(NC(=O)c2nc(NC(=O)CCNC(=O)c3cc(NC(=O)c4nc(NC(=O)CCCNC(=O)c5cc(NC(=O)c6nc(NC(=O)CCNC(=O)c7cc(NC(=O)c8nccn8C)cn7C)cn6C)cn5C)cn4C)cn3C)cn2C)cn1C [Compound B-10] |  |  | > 1000 | < 100
Cn1cc(NC(=O)c2nc(NC(=O)CCNC(=O)c3cc(NC(=O)c4nc(NC(=O)[C@H](N)CCNC(=O)c5cc(NC(=O)c6nc(NC(=O)CCNC(=O)c7cc(NC(=O)c8nccn8C)cn7C)cn6C)cn5C)cn4C)cn3C)cn2C)cc1C(=O)NCCO [Compound B-8] |  |  | 500 to 1000 | > 1000
Cn1cc(NC(=O)c2nccn2C)cc1C(=O)NCCC(=O)Nc1cn(C)c(C(=O)Nc2cc(C(=O)NCCCC(=O)Nc3cn(C)c(C(=O)NCCC(=O)Nc4cc(C(=O)Nc5cn(C)c(C(=O)NCCC(=O)N6CCC(C#CC#CC7CCNCC7)CC6)n5)n(C)c4)n3)n(CCN)c2)n1 [Compound B-267] |  |  | < 100 | < 100
CN(C)c1ccc(C#CCNC(=O)CCNC(=O)c2nc(NC(=O)c3cc(NC(=O)CCNC(=O)c4nc(NC(=O)CCCNC(=O)c5cc(NC(=O)c6nc(NC(=O)CCNC(=O)c7cc(NC(=O)c8nccn8C)cn7C)cn6C)cn5C)cn4C)cn3C)cn2C)cc1 [Compound B-135] |  |  | < 100 | 100 to 500
CCCNC(=O)CCNC(=O)c1nc(NC(=O)c2cc(NC(=O)CCNC(=O)c3nc(NC(=O)CCCNC(=O)c4cc(NC(=O)c5nc(NC(=O)CCNC(=O)c6cc(NC(=O)c7nccn7C)cn6C)cn5C)cn4CCCCCCN=[N+]=[N-])cn3C)cn2C)cn1C [Compound B-58] |  |  | < 100 | < 100
Cn1cc(NC(=O)c2nccn2C)cc1C(=O)NCCC(=O)Nc1cn(C)c(C(=O)Nc2cc(C(=O)NCC[C@@H](N)C(=O)Nc3cn(C)c(C(=O)NCCC(=O)Nc4cc(C(=O)Nc5cn(C)c(C(=O)NCCC(=O)N6CCC(C#CC#CC7CCNCC7)CC6)n5)n(C)c4)n3)n(C)c2)n1 [Compound B-407] |  |  | 100 to 500 | 500 to 1000
CC(C)CCCN1CCC(C#CC#CC2CCN(CCCCCNC(=O)CCNC(=O)c3nc(NC(=O)c4cc(NC(=O)CCNC(=O)c5nc(NC(=O)CCCNC(=O)c6cc(NC(=O)c7nc(NC(=O)CCNC(=O)c8cc(NC(=O)c9nccn9C)cn8C)cn7C)cn6C)cn5C)cn4C)cn3C)CC2)CC1 [Compound B-185] |  |  | > 1000 | 100 to 500
Cn1cc(NC(=O)c2nc(NC(=O)CCNC(=O)c3cc(NC(=O)c4nccn4C)cn3C)cn2C)cc1C(=O)NCCCC(=O)Nc1cn(C)c(C(=O)NCCC(=O)Nc2cc(C(=O)Nc3cn(C)c(C(=O)NCCC(=O)N4CCC(C5CNC5)CC4)n3)n(C)c2)n1 [Compound B-142] |  |  | 100 to 500 | 500 to 1000
Cn1cc(NC(=O)c2nc(NC(=O)CCNC(=O)c3cc(NC(=O)c4nccn4C)cn3C)cn2C)cc1C(=O)NCCCC(=O)Nc1cn(C)c(C(=O)NCCC(=O)Nc2cc(C(=O)Nc3cn(C)c(C(=O)NCCC(=O)NCCCN4CCCCC4)n3)n(C)c2)n1 [Compound B-38] |  |  | 100 to 500 | > 1000
CC(=O)N1CCC(N2CCN(C(=O)CCNC(=O)c3nc(NC(=O)c4cc(NC(=O)CCNC(=O)c5nc(NC(=O)CCCNC(=O)c6cc(NC(=O)c7nc(NC(=O)CCNC(=O)c8cc(NC(=O)c9nccn9C)cn8C)cn7C)cn6C)cn5C)cn4C)cn3C)CC2)CC1 [Compound B-119] |  |  | 100 to 500 | 500 to 1000
CC(=O)NCCCCn1cc(NC(=O)c2nc(NC(=O)CCNC(=O)c3cc(NC(=O)c4nccn4C)cn3C)cn2C)cc1C(=O)NCCCC(=O)Nc1cn(C)c(C(=O)NCCC(=O)Nc2cc(C(=O)Nc3cn(C)c(C(=O)NCCC(=O)N4CCC(C#CC#CC5CCNCC5)CC4)n3)n(C)c2)n1 [Compound B-284] |  |  | < 100 | < 100
Cn1cc(NC(=O)c2nc(NC(=O)CCNC(=O)c3cc(NC(=O)c4nccn4C)cn3C)cn2C)cc1C(=O)NCCCC(=O)Nc1cn(C)c(C(=O)NCCC(=O)Nc2cc(C(=O)Nc3cn(C)c(C(=O)NCCC(=O)NCCOCCOCCOCCN4CCC(C#CC#CC5CCN(C(=O)OC(C)(C)C)CC5)CC4)n3)n(C)c2)n1 [Compound B-17] |  |  | < 100 | < 100
COC(=O)c1ccc(C#CCNCCCNC(=O)c2nc(NC(=O)c3cc(NC(=O)CCNC(=O)c4nc(NC(=O)CCCNC(=O)c5cc(NC(=O)c6nc(NC(=O)CCNC(=O)c7cc(NC(=O)c8nccn8C)cn7C)cn6C)cn5C)cn4C)cn3C)cn2C)cc1 [Compound B-362] |  |  | < 100 | < 100
CCCNC(=O)c1nc(NC(=O)c2cc(NC(=O)CCNC(=O)c3nc(NC(=O)CCCNC(=O)c4cc(NC(=O)c5nc(NC(=O)CCNC(=O)c6cc(NC(=O)c7nc(NC=O)cn7C)cn6C)cn5C)cn4C)cn3C)cn2C)cn1C [Compound B-327] |  |  | < 100 | < 100
CCN(CC)CCCC[C@H](NC(=O)c1cccnc1)C(=O)NCCOCCOCCOCCOCCOCCNC(=O)CCNC(=O)c1nc(NC(=O)c2cc(NC(=O)CCNC(=O)c3nc(NC(=O)CCCNC(=O)c4cc(NC(=O)c5nc(NC(=O)CCNC(=O)c6cc(NC(=O)c7nccn7C)cn6C)cn5C)cn4C)cn3C)cn2C)cn1C [Compound B-94] |  |  | 500 to 1000 | 100 to 500
